Experimental data as given in patent US12486273B2 (Hoffmann-La Roche Inc., priority 2019, dated 2025).
pIC50: −log10 of the molar value.

How the values were obtained:
human TLR7 = human TLR7 (Homo sapiens (Human), UniProt Q9NYK1); assay: HEK293-Blue-hTLR-7 cells assay; format: cell-based; conditions: HEK293-Blue-hTLR7 cells, R848 stimulation, 20 hrs, SEAP reporter; read-out: HEK/hTLR7 IC50
Source text: HEK293-BLUE-hTLR-7 CELLS ASSAY:
(§1) A stable HEK293-Blue-hTLR-7 cell line was purchased from InvivoGen (Cat. #: hkb-htlr7, San Diego, California, USA). These cells were originally designed for studying the stimulation of human TLR7 by monitoring the activation of NF-κB. A SEAP (secreted embryonic alkaline phosphatase) reporter gene was placed under the control of the IFN-β minimal promoter fused to five NF-κB and AP-1-binding sites. The SEAP was induced by activating NF-κB and AP-1 via stimulating HEK-Blue hTLR7 cells with TLR7 ligands. Therefore the reporter expression was declined by TLR7 antagonist under the stimulation of a ligand, such as R848 (Resiquimod), for incubation of 20 hrs. The cell culture supernatant SEAP reporter activity was determined using QUANTI-Blue™ kit (Cat. #: rep-qb1, Invivogen, San Diego, Ca, USA) at a wavelength of 640 nm, a detection medium that turns purple or blue in the presence of alkaline phosphatase.
(§2) HEK293-Blue-hTLR7 cells were incubated at a density of 250,000˜450,000 cells/mL in a volume of 170 μL in a 96-well plate in Dulbecco's Modified Eagle's medium (DMEM) containing 4.5 g/L glucose, 50 U/mL penicillin, […], […], 2 mM L-glutamine, 10% (v/v) heat-inactivated fetal bovine serum with addition of 20 μL test compound in a serial dilution in the presence of final DMSO at 1% and 10 μL of 20 μM R848 in above DMEM, perform incubation under 37° C. in a CO2 incubator for 20 hrs. Then 20 μL of the supernatant from each well was incubated with 180 μL Quanti-blue substrate solution at 37° C. for 2 hrs and the absorbance was read at 620-655 nm using a spectrophotometer. The signaling pathway that TLR7 activation leads to downstream NF-κB activation has been widely accepted, and therefore similar reporter assay was modified for evaluating TLR7 antagonist.

human TLR8 = human TLR8 (Homo sapiens (Human), UniProt Q9NR97); assay: HEK293-Blue-hTLR-8 cells assay; format: cell-based; conditions: HEK293-Blue-hTLR8 cells, R848 stimulation, 20 hrs, SEAP reporter; read-out: HEK/hTLR8 IC50
Source text: HEK293-Blue-hTLR-8 Cells Assay:
as §1, with “HEK293-Blue-hTLR-8” for “HEK293-Blue-hTLR-7”, “hkb-htlr8,” for “hkb-htlr7,”, “TLR8” for “TLR7”, “hTLR8” for “hTLR7”, “R848,” for “R848 (Resiquimod),”, “rep-Qb1,” for “rep-qb1,”
HEK293-Blue-hTLR8 cells were incubated at a density of 250,000-450,000 cells/mL in a volume of 170 μL in a 96-well plate in Dulbecco's Modified Eagle's medium (DMEM) containing 4.5 g/L glucose, 50 U/mL penicillin, […], […], 2 mM L-glutamine, 10% (v/v) heat-inactivated fetal bovine serum with addition of 20 μL test compound in a serial dilution in the presence of final DMSO at 1% and 10 μL of 60 μM R848 in above DMEM, perform incubation under 37° C. in a CO2 incubator for 20 hrs. Then 20 μL of the supernatant from each well was incubated with 180 μL Quanti-blue substrate solution at 37° C. for […] and the absorbance was read at 620˜655 nm using a spectrophotometer. The signaling pathway that TLR8 activation leads to downstream NF-κB activation has been widely accepted, and therefore similar reporter assay was modified for evaluating TLR8 antagonist.

human TLR9 = human TLR9 (Homo sapiens (Human), UniProt Q9NR96); assay: HEK293-Blue-hTLR-9 cells assay; format: cell-based; conditions: HEK293-Blue-hTLR9 cells, ODN2006 stimulation, 20 hrs, SEAP reporter; read-out: HEK/hTLR9 IC50
Source text: HEK293-Blue-hTLR-9 Cells Assay:
A stable HEK293-Blue-hTLR-9 cell line was purchased from InvivoGen (Cat. #: hkb-htlr9, San Diego, California, USA). These cells were originally designed for studying the stimulation of human TLR9 by monitoring the activation of NF-κB. A SEAP (secreted embryonic alkaline phosphatase) reporter gene was placed under the control of the IFN-β minimal promoter fused to five NF-κB and AP-1-binding sites. The SEAP was induced by activating NF-κB and AP-via stimulating HEK-Blue hTLR9 cells with TLR9 ligands. Therefore the reporter expression was declined by TLR9 antagonist under the stimulation of a ligand, such as ODN2006 (Cat. #: tlrl-2006-1, Invivogen, San Diego, California, USA), for incubation of 20 hrs. The cell culture supernatant SEAP reporter activity was determined using QUANTI-Blue™ kit (Cat. #: rep-qb1, Invivogen, San Diego, California, USA) at a wavelength of 640 nm, a detection medium that turns purple or blue in the presence of alkaline phosphatase.
as §2, with “HEK293-Blue-hTLR9 cells” for “HEK293-Blue-hTLR7 cells”, “μM ODN2006” for “μM R848”, “2 h” for “2 hrs”, “that TLR9” for “that TLR7”, “evaluating TLR9” for “evaluating TLR7”

[1] = Human microsomal stability assay; format: in vitro ADME; conditions: human liver microsomes, 1 μM test compound, 37° C., pH 7.4
Procedure: Human Microsomal Stability Assay
Human liver microsomes (Cat. NO.: 452117, Corning, USA) were preincubated with test compound for 10 minutes at 37° C. in 100 mM potassium phosphate buffer, pH 7.4. The reactions were initiated by adding NADPH regenerating system. The final incubation mixtures contained 1 μM test compound, 0.5 mg/mL liver microsomal protein, 1 mM MgCl2, 1 mM NADP, 1 unit/mL isocitric dehydrogenase and 6 mM isocitric acid in 100 mM potassium phosphate buffer, pH 7.4. After incubation times of 0, 3, 6, 9, 15 and 30 minutes at 37° C., 300 μL of cold ACN (including internal standard) was added to 100 μL incubation mixture to terminate the reaction. Following precipitation and centrifugation, 100 μL supernatant will be taken out and added 300 μL water. The amount of compound remaining in the samples was determined by LC-MS/MS. Controls of no NADPH regenerating system at zero and 30 minutes were also prepared and analyzed. The results were categorized as: low (<7.0 mL/min/kg), medium (7.0-16.2 mL/min/kg) and high (16.2-23.2 mL/min/kg).

human TLR9, sequence (Q9NR96 26-1032): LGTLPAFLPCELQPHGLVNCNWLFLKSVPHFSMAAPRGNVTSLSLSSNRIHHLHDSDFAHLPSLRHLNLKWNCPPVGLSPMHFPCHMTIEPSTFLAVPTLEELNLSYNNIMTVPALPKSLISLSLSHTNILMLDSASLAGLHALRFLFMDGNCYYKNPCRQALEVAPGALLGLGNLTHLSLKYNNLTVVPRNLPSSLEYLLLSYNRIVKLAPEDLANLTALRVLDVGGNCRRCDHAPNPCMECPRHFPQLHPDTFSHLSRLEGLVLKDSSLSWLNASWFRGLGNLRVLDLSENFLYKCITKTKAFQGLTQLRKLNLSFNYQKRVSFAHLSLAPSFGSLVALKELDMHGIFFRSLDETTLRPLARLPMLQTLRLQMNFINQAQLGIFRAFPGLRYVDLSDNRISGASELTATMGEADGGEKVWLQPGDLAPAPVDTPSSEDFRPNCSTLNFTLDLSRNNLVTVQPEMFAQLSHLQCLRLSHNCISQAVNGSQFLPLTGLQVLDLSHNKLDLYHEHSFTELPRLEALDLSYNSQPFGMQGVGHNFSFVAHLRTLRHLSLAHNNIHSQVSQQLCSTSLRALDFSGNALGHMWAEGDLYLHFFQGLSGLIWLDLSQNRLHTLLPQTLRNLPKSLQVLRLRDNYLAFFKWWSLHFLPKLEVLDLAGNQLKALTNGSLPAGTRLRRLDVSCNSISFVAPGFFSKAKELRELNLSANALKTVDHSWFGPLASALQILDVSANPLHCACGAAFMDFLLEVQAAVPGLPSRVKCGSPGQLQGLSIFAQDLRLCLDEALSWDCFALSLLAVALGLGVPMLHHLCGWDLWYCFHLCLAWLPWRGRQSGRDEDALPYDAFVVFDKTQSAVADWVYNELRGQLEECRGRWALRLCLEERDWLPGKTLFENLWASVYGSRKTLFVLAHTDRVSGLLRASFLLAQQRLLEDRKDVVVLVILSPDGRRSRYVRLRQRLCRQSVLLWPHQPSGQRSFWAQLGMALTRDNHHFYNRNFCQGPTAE
human TLR8, sequence (Q9NR97 27-1041): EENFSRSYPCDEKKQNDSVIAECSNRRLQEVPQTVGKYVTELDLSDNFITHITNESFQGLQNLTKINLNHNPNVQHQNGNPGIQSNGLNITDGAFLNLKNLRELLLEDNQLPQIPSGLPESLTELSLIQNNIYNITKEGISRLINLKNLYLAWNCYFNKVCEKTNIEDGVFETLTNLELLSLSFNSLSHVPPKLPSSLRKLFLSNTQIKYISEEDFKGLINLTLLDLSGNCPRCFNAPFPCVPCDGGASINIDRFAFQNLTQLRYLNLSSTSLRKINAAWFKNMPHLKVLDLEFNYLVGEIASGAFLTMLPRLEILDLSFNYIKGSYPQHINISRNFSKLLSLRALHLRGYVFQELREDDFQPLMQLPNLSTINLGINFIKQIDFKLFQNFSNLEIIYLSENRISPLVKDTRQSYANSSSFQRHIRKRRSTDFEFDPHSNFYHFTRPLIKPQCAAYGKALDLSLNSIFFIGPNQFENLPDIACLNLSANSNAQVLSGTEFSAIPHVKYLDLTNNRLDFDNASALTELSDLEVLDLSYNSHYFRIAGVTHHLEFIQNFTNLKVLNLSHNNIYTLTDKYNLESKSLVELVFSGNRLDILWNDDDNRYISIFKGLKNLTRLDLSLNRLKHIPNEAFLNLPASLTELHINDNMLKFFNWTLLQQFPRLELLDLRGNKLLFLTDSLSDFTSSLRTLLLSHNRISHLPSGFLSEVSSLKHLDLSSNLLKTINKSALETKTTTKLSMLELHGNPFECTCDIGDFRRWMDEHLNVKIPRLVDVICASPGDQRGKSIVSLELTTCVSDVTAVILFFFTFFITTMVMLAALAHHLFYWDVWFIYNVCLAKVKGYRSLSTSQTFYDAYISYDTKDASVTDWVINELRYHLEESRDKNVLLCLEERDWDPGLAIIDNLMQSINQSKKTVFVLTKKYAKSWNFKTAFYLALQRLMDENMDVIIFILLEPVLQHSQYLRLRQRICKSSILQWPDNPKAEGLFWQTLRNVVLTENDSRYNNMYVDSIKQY
human TLR7, sequence (Q9NYK1 27-1049): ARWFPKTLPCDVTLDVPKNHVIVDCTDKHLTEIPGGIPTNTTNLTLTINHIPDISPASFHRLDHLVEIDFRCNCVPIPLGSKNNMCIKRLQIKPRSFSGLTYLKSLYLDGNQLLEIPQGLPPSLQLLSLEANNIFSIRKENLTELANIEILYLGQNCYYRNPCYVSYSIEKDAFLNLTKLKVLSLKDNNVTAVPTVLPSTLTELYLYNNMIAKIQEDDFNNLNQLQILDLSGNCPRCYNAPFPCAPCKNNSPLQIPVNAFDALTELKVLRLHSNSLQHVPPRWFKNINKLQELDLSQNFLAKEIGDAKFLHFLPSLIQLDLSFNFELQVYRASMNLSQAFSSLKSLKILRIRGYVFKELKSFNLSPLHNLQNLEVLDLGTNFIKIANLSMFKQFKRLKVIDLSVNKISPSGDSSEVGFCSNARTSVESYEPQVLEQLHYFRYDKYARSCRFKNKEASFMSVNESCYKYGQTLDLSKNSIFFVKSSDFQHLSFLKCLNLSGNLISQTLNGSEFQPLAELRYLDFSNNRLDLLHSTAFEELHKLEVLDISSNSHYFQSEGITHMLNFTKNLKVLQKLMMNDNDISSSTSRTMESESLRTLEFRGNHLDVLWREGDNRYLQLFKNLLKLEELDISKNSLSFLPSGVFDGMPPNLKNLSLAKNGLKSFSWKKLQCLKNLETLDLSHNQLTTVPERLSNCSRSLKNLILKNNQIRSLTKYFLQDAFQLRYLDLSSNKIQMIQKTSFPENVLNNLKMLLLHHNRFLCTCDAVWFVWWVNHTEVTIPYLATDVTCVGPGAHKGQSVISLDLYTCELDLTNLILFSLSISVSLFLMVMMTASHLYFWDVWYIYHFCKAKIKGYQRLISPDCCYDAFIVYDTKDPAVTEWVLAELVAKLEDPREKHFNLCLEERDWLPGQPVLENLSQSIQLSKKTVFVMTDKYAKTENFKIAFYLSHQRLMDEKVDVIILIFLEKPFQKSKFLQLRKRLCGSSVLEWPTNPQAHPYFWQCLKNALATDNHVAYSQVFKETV

pIC50 (human TLR7): 8.37
pIC50 (human TLR8): 8.23
pIC50 (human TLR9): 7.02
CL (h) [1]: 8.9 mL/min/kg
Compound: [2H]c1ccc2c(N3C[C@@H]4C[C@H](N5CCc6ncc(N7CCNCC7)nc6C5)CN4[C@H](C)C3)ccc(C#N)c2n1 [Example 24]
